Measurements published in US20260159484A1, “AKT3 MODULATORS” (GEORGIAMUNE LLC, priority 2021, published 2026).
pIC50: −log10 of the molar value.

Molecular target: T1, Akt3 (Mus musculus, UniProt Q9WUA6)
T1 construct: endogenous in cells; host or cells: primary CD4 conventional T cells (CD4+/CD25-) from C57BL/6 mice
Assay: Foxp3 induction assay (iTreg induction from CD4 conventional T cells); reported as Akt3 inhibition activity
Assay type: cell-based
Details: Foxp3 induction in CD4 Tconvs from C57/B16 mice, anti-CD3/anti-CD28, IL2, TGF-β, 3 days of culture, flow cytometry
Description: Sorted or enriched (Miltenyi magnetic separation) CD4 conventional T cells (Tconvs -CD4+/CD25) from C57/B16 mice were used for the induction of iTregs. A 10 μg/mL plate-bound anti-CD3 antibody (50ul per well for 96-well plate), 2.5 μg/mL of soluble anti-CD28 antibody, 100 IU/mL of IL2 and 5 ng/mL of TGF-β in absence or presence of different concentrations of drug (usually titrating from 0.01 uM to 10 uM) were used. As negative control for induction, samples without TGF-β were used.
After 3 days of culture in presence of stimulation, TGF-β and drug, cells were stained with fixable live/dead cell stain (Life Technologies, NY) for gating and exclusion of toxic doses. The mouse Foxp3 buffer kit was used to fix and permeabilize cells according to the manufacturer's instructions (BD Bioscience, San Jose, CA). The anti-CD4 antibody and anti-Foxp3 antibody were used to stain the cells. After staining, cells were acquired using flow cytometer.

T1 sequence (Q9WUA6 whole entry): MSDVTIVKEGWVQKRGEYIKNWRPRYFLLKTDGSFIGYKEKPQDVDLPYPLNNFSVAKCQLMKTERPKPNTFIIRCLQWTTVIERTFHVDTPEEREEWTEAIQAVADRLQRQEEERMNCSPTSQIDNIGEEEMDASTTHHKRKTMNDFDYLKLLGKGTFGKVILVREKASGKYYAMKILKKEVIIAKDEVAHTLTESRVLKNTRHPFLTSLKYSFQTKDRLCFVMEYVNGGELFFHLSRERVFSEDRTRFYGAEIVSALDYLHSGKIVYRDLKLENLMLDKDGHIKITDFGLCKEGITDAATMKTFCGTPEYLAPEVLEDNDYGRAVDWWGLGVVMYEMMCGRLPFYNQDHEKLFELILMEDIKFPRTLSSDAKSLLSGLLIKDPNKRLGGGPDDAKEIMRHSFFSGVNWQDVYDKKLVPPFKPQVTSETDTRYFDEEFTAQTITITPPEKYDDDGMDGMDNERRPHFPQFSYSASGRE

SMILES	pIC50
Cc1cnc2ccccc2c1Nc1ccc(CC(=O)Nc2ccccc2S(N)(=O)=O)cc1 [Compound 1, 2-(4-((3-methylquinolin-4-yl)amino)phenyl)-N-(2-sulfamoylphenyl)acetamide]	> 6.00
CC(=O)c1ccccc1NC(=O)c1ccc(Nc2c(C)cnc3ccccc23)cc1 [Compound 2, N-(2-acetylphenyl)-4-((3-methylquinolin-4-yl)amino)benzamide]	> 6.00
CC(=O)c1ccccc1NC(=O)Cc1ccc(Nc2c(C)cnc3ccccc23)cc1 [Compound 3, N-(2-acetylphenyl)-2-(4-((3-methylquinolin-4-yl)amino)phenyl)acetamide]	> 6.00
CC(=O)c1cccc(NC(=O)Cc2ccc(Nc3cc(C)nc4ccccc34)cc2)c1 [Compound 5, N-(3-acetylphenyl)-2-(4-((2-methylquinolin-4-yl)amino)phenyl)acetamide]	> 5.70
CC(=O)c1cnccc1NC(=O)Cc1ccc(Nc2cc(C)nc3ccccc23)cc1 [Compound 6, N-(3-acetylpyridin-4-yl)-2-(4-((2-methylquinolin-4-yl)amino)phenyl)acetamide]	> 5.30
